Activity calls are given as the source filed them. The rule behind the calls is not given here.
Tests used:
[1] = tested on: Mus musculus; assay: Antiinflammatory activity in mouse assessed as reduction in xylene-induced ear edema at 100 mg/kg, ip administered after prior to xylene stimulation and measured after 1 hr relative to control; type: functional
[2] = tested on: Mus musculus; assay: Antiinflammatory activity in mouse assessed as xylene-induced ear edema at 100 mg/kg, ip administered prior to xylene stimulation and measured after 1 hr (reference value: 2.05 +/- 0.40 mg); type: functional
[3] = tested on: Mus musculus; assay: Analgesic activity in mouse assessed as reduction in acetic acid-induced abdominal writhing at 100 mg/kg, ip relative to control; type: functional
[4] = target: Prostaglandin G/H synthase 1 (Homo sapiens, UniProt P23219); assay: Inhibition of COX1 (unknown origin); type: single protein
Chain of Prostaglandin G/H synthase 1 (P23219 whole entry): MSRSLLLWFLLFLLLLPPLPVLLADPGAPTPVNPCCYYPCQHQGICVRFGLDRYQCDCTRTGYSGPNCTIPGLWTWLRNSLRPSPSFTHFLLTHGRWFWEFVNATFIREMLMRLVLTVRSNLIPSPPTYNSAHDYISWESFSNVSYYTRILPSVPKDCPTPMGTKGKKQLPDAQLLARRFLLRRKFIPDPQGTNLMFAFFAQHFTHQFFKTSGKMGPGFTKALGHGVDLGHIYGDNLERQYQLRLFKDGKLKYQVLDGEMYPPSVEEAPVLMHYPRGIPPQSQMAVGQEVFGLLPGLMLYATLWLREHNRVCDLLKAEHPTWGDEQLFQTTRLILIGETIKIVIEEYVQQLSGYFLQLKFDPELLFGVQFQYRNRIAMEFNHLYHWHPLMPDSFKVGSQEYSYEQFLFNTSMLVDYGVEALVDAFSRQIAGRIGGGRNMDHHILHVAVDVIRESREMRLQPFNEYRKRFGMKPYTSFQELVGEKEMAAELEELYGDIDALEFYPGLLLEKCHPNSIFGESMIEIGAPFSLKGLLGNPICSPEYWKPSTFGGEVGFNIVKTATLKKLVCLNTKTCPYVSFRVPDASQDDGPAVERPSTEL

[5] = target: T1, Prostaglandin G/H synthase 2 (Homo sapiens, UniProt P35354); assay: Inhibition of COX2 (unknown origin)
T1 sequence (P35354 whole entry): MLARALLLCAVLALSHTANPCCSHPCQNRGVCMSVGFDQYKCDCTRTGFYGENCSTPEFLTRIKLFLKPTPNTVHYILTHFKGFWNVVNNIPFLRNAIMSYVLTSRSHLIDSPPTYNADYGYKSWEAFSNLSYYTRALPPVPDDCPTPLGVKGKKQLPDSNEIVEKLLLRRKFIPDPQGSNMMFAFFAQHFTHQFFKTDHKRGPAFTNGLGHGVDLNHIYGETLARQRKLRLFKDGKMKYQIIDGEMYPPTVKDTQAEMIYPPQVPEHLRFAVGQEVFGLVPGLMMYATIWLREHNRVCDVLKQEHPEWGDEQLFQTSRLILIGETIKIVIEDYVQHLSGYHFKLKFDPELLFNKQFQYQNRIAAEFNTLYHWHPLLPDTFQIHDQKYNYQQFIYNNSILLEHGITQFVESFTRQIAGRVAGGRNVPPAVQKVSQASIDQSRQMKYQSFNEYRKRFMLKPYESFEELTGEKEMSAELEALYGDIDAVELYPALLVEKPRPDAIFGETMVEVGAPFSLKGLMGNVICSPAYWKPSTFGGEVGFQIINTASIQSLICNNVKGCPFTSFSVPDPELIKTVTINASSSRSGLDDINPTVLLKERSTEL

[6] = species: Homo sapiens; assay: Selectivity index, ratio of IC50 for COX1 (unknown origin) to IC50 for COX2 (unknown origin)
[7] = tested on: Rattus norvegicus; assay: Antiinflammatory activity against carrageenan-induced paw edema in rat assessed as inhibition of paw edema at 100 mg/kg, ip administered at 1 hr prior to carrageenan challenge and measured after 4 hrs by electronic-onkographic analysis; type: functional; settings: time 5 hrs

Row | Structure (SMILES) | inhibition in vivo at 100 mg/kg [1] [%] | Activity [2] [mg] | inhibition [3] | inhibition in vivo at 100 mg/kg [3] [%] | IC50 [4] [nM] | IC50 [5] [nM] | Ratio IC50 [6] | inhibition in vivo at 100 mg/kg [7] [%]
1 | N#Cc1ccc(COc2nc3ccccc3s2)cc1 | 12.7 | 1.79 | inactive | – | – | – | – | –
2 | Brc1ccccc1COc1nc2ccccc2s1 | 75.6 | 0.5 | – | 51.9 | – | – | – | –
3 | Fc1cccc(COc2nc3ccccc3s2)c1 | 86.8 | 0.27 | – | 51.9 | 5220 | 280 | 18.6 | –
4 | Brc1ccc(OCCOc2nc3ccccc3s2)cc1 | 94.6 | 0.11 | – | 68.6 | 5320 | 500 | 10.6 | –
5 | Brc1ccc(OCCOc2nc3ccccc3s2)c(Br)c1 | 87.3 | 0.26 | – | 68.6 | 5080 | 360 | 14.1 | –
6 | Cc1ccc(COc2nc3ccccc3s2)cc1 | 1.95 | 2.01 | inactive | – | – | – | – | –
7 | COc1ccc2c(c1)c(CC(=O)O)c(C)n2C(=O)c1ccc(Cl)cc1 [INDOMETHACIN] | 82.4 | 0.36 | – | – | – | – | – | –
8 | Brc1cccc(COc2nc3ccccc3s2)c1 | 77.6 | 0.46 | – | 51.9 | – | – | – | –
9 | Fc1ccccc1COc1nc2ccccc2s1 | 74.6 | 0.52 | – | 51.9 | – | – | – | –
10 | Clc1ccc(OCCOc2nc3ccccc3s2)cc1 | 66.3 | 0.69 | – | 68.6 | – | – | – | –
11 | c1ccc(OCCOc2nc3ccccc3s2)cc1 | 7.31 | 1.9 | inactive | – | – | – | – | –
12 | Fc1ccc(OCCOc2nc3ccccc3s2)c(F)c1 | 56.1 | 0.9 | – | 68.6 | – | – | – | –
13 | COc1ccc(COc2nc3ccccc3s2)cc1 | 2.43 | 2 | inactive | – | – | – | – | –
14 | COc1cc(COc2nc3ccccc3s2)cc(OC)c1 | 44.4 | 1.14 | – | 51.9 | – | – | – | –
15 | Clc1ccccc1COc1nc2ccccc2s1 | 14.6 | 1.75 | inactive | – | – | – | – | –
16 | FC(F)(F)c1ccc(COc2nc3ccccc3s2)cc1 | 12.2 | 1.8 | – | 99.6 | – | – | – | –
17 | Clc1ccc(OCCOc2nc3ccccc3s2)c(Cl)c1 | 85.4 | 0.3 | – | 68.6 | 4280 | 410 | 10.4 | –
18 | c1ccc(COc2nc3ccccc3s2)cc1 | 68.8 | 0.64 | – | 51.9 | – | – | – | –
19 | Fc1ccc(OCCOc2nc3ccccc3s2)cc1 | 72.7 | 0.56 | – | 99.9 | – | – | – | –
20 | Clc1cccc(COc2nc3ccccc3s2)c1 | 80 | 0.41 | – | 51.9 | – | – | – | –
21 | Fc1ccc(COc2nc3ccccc3s2)cc1 | 90.7 | 0.19 | – | 51.9 | 6200 | 370 | 16.8 | –
22 | O=C(c1ccc([N+](=O)[O-])cc1)c1nc2ccc(F)c(Nc3ccccc3[N+](=O)[O-])c2s1 | – | – | – | – | – | – | – | 78
23 | Brc1ccc(COc2nc3ccccc3s2)cc1 | 78 | 0.45 | – | 51.9 | – | – | – | –
24 | Cc1cc(C)cc(COc2nc3ccccc3s2)c1 | 0.5 | 2.04 | – | 51.9 | – | – | – | –
25 | Clc1ccc(COc2nc3ccccc3s2)cc1 | 82.9 | 0.35 | – | 51.9 | 5550 | 770 | 7.2 | –
26 | O=[N+]([O-])c1ccc(COc2nc3ccccc3s2)cc1 | 4.39 | 1.96 | – | 97 | – | – | – | –
27 | FC(F)(F)c1ccccc1COc1nc2ccccc2s1 | 9.75 | 2.03 | inactive | – | – | – | – | –
